According to publication PMC5823565, “Targeting ovarian cancer and endothelium with an allosteric PTP4A3 phosphatase inhibitor” (Oncotarget, 2017):
“Also recorded” adds a separate entry of the source. One block for each compound: values may come before it.

Assays:
A2780 = test: 2D monolayer viability assay (CellTiter Blue); assay type: cell-based; settings: Homo sapiens, A2780; 48 h, Mean ± SD, N=3; read-out: Monolayer (IC50 µM) A2780
SKOV3IP1 = test: 2D monolayer viability assay (CellTiter Blue); assay type: cell-based; settings: Homo sapiens; 48 h, Mean ± SD, N=3
SKOV3TRIP2 = test: 2D monolayer viability assay (CellTiter Blue); assay type: cell-based; settings: Homo sapiens; 48 h, Mean ± SD, N=3
HEYA8 = test: 2D monolayer viability assay (CellTiter Blue); assay type: cell-based; settings: Homo sapiens, HEY A8; 48 h, Mean ± SD, N=3
HEYA8-MDR = test: 2D monolayer viability assay (CellTiter Blue); assay type: cell-based; settings: Homo sapiens, 48 h, Mean ± SD, N=3
OVCAR4 = test: 2D monolayer viability assay (CellTiter Blue); assay type: cell-based; settings: Homo sapiens, OVCAR-4; 48 h, Mean ± SD, N=3
SKOV3 = test: 2D monolayer viability assay (CellTiter Blue); assay type: cell-based; settings: Homo sapiens, SK-OV-3; 48 h, Mean ± SD, N=3
A2780CP20 = test: 2D monolayer viability assay (CellTiter Blue); assay type: cell-based; settings: Homo sapiens; 48 h, Mean ± SD, N=3
[1] = tested on: primary human lung microvascular endothelial cells (MVEC); test: Endothelial barrier function (TEER, ECIS) after VEGF challenge; assay type: cell-based; settings: 5 µM
PTPRB (PTPβ) = PTPRB (PTPβ) (Homo sapiens, UniProt P23467); test: Phosphatase specificity profiling (PhosphataseProfiler); assay type: biochemical; settings: 10 µM DiFMUP, commercial vendor, N=2, read-out: % Activity (Mean ± SD) PTPRB (PTPβ)
LMPTP-B = LMPTP-B (Homo sapiens, UniProt P24666); test: as above; assay type: biochemical; settings: 10 µM DiFMUP, commercial vendor, N=2, read-out: % Activity (Mean ± SD) LMPTP-B
[2] = tested on: Rac1 activation in human MVEC; test: Rac1 activation assay in MVEC after LPS; assay type: cell-based; settings: 5 µM pretreatment 24 h, LPS 0.5 EU/mL 1 h
PTP4A1 = PTP4A1 (Homo sapiens, UniProt Q93096); test: PTP4A1 phosphatase activity assay with DiFMUP; assay type: biochemical; settings: DiFMUP substrate
PTPN7 (HePTP) = PTPN7 (HePTP) (Homo sapiens, UniProt P35236); test: Phosphatase specificity profiling (PhosphataseProfiler); assay type: biochemical; settings: 10 µM DiFMUP, commercial vendor, N=2, read-out: % Activity (Mean ± SD) PTPN7 (HePTP)
p38α = molecular target: T1, p38α (Homo sapiens, UniProt Q16539); test: Kinase profiling (KinaseSeeker); assay type: biochemical; settings: 1 µM screening concentration
T1 construct: purchased Luceome Biotechnologies (Tucson, AZ), KinaseSeeker

DUSP13 (TMDP) = DUSP13 (TMDP) (Homo sapiens, UniProt Q9UII6); test: Phosphatase specificity profiling (PhosphataseProfiler); assay type: biochemical; settings: 10 µM DiFMUP, commercial vendor, N=2, read-out: % Activity (Mean ± SD) DUSP13 (TMDP)
[3] = tested on: RhoA activation in human MVEC; test: RhoA activation pull-down assay in MVEC after LPS; assay type: cell-based; settings: 5 µM pretreatment 24 h, LPS 0.5 EU/mL 1 h
[4] = tested on: primary human lung microvascular endothelial cells (MVEC); test: Endothelial barrier function (TEER, ECIS) after LPS challenge; assay type: cell-based
Lambda PP (Phage) = molecular target: T2, Lambda PP (Phage) (Escherichia phage lambda, UniProt P03772); test: Phosphatase specificity profiling (PhosphataseProfiler); assay type: biochemical; settings: 10 µM DiFMUP, commercial vendor, N=2, read-out: % Activity (Mean ± SD) Lambda PP (Phage)
T2 construct: purchased Eurofins (Dundee, Scotland, UK), PhosphataseProfiler

OvCa cell lines = test: 2D monolayer viability assay, across the panel; assay type: cell-based, human; settings: Homo sapiens, 48 h, read-out: no significant growth inhibition of any of the OvCa cell lines at concentrations as high as
OvCa cell line spheroids = test: Spheroid viability assay, across the panel; assay type: cell-based; settings: Homo sapiens; 48 h exposure; read-out: no effects on spheroids in any cell lines at concentrations up to
IMR90 fibroblasts = test: 2D monolayer viability assay (CellTiter Blue); assay type: cell-based; settings: Homo sapiens, IMR-90; 48 h, N=3
PTP4A3 protein [5] = molecular target: T3, PTP4A3 protein (Homo sapiens, UniProt O75365); test: PTP4A3 phosphatase activity assay with DiFMUP substrate; assay type: biochemical; design: using a full-length recombinant human PTP4A3 and DiFMUP as the substrate; His6; made in house; settings: full-length recombinant human PTP4A3, DiFMUP substrate; read-out: PTP4A3 inhibition, inactive at concentrations as high as
[6] = tested on: RhoA activation in HeyA8 cells; test: RhoA G-LISA activation assay; assay type: cell-based, human; settings: HeyA8, 1 µM
PTP4A3 protein [7] = molecular target: T3, PTP4A3 protein; test: Thermal shift assay with SYPRO orange; assay type: binding; design: made in house; settings: 100 µM compound, 16 μM protein
HeyA8 cells = test: Scratch wound migration assay; assay type: cell-based, human; settings: measured 14 h after scratch
HeyA8 spheroids = test: Spheroid viability and growth assay; assay type: cell-based, human
SKOV3 spheroids = test: Spheroid viability assay (CellTiterGlo 3D); assay type: cell-based; settings: Homo sapiens, SK-OV-3; 48 h, Mean ± SD, N=3
OVCAR4 spheroids = test: Spheroid viability assay (CellTiterGlo 3D); assay type: cell-based; settings: Homo sapiens, OVCAR-4; 48 h, Mean ± SD, N=3
SKOV3TRIP2 spheroids = test: Spheroid viability assay (CellTiterGlo 3D); assay type: cell-based; settings: Homo sapiens; 48 h, Mean ± SD, N=3
A2780 spheroids = test: Spheroid viability assay (CellTiterGlo 3D); assay type: cell-based; settings: Homo sapiens, 48 h, Mean ± SD, N=3
COV362 spheroids = test: Spheroid viability assay (CellTiterGlo 3D); assay type: cell-based; settings: Homo sapiens, 48 h, Mean ± SD, N=3
[8] = tested on: normal human ovarian HI0-180 epithelial cells; test: Spheroid viability assay (CellTiterGlo 3D); assay type: cell-based; settings: Epithelial cell, 48 h
SKOV3IP1 spheroids = test: Spheroid viability assay (CellTiterGlo 3D); assay type: cell-based; settings: Homo sapiens; 48 h, Mean ± SD, N=3
HeyA8-MDR spheroids = test: Spheroid viability assay (CellTiterGlo 3D); assay type: cell-based; settings: Homo sapiens, 48 h, Mean ± SD, N=3
A2780CP20 spheroids = test: Spheroid viability assay (CellTiterGlo 3D); assay type: cell-based; settings: Homo sapiens; 48 h, Mean ± SD, N=3

T3 sequence (O75365 whole entry): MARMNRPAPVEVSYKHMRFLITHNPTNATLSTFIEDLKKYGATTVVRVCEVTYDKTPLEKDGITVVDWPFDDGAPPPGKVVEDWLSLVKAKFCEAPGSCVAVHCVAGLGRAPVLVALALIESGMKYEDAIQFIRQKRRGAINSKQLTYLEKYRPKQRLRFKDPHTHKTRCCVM
Sequence of PTP4A1 (Q93096 whole entry): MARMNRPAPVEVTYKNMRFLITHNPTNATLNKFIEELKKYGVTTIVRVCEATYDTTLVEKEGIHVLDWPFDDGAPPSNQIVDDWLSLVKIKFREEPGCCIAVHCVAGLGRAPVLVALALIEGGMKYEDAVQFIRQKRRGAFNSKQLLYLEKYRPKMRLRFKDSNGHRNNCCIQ
Sequence of PTPRB (PTPβ) (P23467 23-1997): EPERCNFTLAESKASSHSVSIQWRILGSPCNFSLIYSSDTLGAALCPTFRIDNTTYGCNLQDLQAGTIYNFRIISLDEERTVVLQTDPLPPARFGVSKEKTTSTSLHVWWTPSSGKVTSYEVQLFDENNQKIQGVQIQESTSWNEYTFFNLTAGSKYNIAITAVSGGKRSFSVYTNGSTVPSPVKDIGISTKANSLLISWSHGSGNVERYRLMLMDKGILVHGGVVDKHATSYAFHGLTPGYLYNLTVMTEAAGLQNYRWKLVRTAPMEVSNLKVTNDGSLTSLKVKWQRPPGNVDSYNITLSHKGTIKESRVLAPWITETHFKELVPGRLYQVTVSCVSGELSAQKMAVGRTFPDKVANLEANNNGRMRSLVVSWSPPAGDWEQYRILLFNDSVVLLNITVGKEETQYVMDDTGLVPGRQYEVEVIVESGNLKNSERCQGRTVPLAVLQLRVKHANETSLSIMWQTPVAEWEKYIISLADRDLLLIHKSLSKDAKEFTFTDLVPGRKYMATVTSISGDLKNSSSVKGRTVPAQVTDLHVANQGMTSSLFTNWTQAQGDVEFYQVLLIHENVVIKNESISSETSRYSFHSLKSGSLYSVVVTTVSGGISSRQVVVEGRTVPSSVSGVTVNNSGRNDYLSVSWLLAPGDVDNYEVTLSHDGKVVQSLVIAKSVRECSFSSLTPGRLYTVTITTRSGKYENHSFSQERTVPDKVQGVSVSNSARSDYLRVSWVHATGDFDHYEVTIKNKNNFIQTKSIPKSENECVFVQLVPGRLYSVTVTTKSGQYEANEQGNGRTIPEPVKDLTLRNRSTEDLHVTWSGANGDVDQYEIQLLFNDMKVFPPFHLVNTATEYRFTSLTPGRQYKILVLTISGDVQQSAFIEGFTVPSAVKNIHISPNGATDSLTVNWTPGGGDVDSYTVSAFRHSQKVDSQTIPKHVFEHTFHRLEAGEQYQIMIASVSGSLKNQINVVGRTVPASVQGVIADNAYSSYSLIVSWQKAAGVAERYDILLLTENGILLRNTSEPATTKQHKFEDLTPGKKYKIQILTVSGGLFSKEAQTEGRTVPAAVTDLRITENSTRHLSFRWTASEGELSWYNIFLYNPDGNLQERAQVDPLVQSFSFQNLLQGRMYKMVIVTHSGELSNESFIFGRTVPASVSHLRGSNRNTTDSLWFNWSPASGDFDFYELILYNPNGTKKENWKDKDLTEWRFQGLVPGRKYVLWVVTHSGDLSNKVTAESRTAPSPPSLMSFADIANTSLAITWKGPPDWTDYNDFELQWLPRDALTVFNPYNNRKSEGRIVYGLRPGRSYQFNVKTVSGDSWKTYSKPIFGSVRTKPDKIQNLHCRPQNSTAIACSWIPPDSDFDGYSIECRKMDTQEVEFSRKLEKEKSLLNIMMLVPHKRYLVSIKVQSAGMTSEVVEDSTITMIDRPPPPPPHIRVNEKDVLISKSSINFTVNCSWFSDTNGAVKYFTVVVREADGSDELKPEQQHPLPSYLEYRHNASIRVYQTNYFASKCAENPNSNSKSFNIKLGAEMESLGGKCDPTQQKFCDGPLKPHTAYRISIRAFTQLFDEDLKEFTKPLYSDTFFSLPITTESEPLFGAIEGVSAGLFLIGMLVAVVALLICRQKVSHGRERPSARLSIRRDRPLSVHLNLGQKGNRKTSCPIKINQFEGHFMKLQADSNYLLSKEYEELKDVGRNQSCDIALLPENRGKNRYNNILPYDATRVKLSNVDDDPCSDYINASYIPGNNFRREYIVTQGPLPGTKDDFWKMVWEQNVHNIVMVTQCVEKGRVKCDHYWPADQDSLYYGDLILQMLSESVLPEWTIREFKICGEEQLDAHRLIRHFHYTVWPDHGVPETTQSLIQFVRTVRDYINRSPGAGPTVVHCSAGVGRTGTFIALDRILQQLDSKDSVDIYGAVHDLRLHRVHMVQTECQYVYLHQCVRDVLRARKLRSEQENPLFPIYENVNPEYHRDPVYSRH
Sequence of PTPN7 (HePTP) (P35236 whole entry): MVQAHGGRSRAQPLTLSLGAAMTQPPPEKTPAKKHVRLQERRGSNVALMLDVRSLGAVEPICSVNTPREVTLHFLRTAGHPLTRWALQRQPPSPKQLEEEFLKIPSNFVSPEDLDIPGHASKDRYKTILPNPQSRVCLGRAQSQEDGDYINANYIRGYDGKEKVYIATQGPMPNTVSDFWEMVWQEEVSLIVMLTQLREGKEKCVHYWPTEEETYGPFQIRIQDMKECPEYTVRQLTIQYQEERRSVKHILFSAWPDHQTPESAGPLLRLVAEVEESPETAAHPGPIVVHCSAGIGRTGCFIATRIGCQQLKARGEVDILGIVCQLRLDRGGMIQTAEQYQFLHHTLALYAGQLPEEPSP
Sequence of LMPTP-B (P24666 1-158 isoform P24666-2): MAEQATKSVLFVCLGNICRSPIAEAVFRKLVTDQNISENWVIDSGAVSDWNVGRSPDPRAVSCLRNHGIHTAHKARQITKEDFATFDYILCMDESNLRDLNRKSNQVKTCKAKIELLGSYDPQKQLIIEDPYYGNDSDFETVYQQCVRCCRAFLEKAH
T2 sequence (P03772 whole entry): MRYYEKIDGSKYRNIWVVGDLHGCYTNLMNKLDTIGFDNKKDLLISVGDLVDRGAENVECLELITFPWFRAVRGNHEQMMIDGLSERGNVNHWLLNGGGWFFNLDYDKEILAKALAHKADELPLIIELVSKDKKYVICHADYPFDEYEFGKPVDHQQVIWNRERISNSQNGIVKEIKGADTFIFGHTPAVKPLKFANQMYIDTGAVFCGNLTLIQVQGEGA
Sequence of DUSP13 (TMDP) (Q9UII6 whole entry): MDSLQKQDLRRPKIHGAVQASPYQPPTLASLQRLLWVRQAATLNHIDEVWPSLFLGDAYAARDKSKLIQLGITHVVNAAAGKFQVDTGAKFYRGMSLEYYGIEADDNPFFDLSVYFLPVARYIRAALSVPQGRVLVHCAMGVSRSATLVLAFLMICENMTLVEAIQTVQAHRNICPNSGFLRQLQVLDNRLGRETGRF
T1 sequence (Q16539 whole entry): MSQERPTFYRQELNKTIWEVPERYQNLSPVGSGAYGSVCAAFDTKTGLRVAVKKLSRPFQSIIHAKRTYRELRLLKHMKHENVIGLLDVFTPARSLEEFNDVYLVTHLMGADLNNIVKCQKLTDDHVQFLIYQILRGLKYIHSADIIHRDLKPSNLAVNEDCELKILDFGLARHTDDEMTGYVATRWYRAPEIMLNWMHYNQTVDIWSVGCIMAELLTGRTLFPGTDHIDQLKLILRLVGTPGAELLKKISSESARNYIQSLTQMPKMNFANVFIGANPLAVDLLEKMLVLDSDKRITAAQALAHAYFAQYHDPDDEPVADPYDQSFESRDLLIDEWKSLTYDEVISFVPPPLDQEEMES

IC50 (A2780): 4.5 ± 0.6 µM
IC50 (SKOV3IP1): 31.3 ± 8.5 µM
IC50 (SKOV3TRIP2): > 50 µM
IC50 (OVCAR4): 15.5 ± 2.4 µM
IC50 (SKOV3): 28.8 ± 2.2 µM
IC50 (A2780CP20): 13.1 ± 6 µM
SMILES: Nc1c[nH]c(=O)c2cc(-c3ccccc3)sc12 [thienopyridone, reference compound]
IC50 (HEYA8): 47 ± 4.9 µM
IC50 (HEYA8-MDR): > 50 µM

SMILES: N=C1C(=O)NC(=O)c2cc(-c3ccccc3)sc21 [JMS-053]
TEER after VEGF, pretreatment ([1]; 2 h before VEGF 100 ng/mL then continuous exposure): normalized
TEER after VEGF, post-treatment ([1]; 3 h after VEGF 100 ng/mL): normalized endothelial barrier function
activity at 1 µM (PTPRB (PTPβ)): 95 ± 5%
activity at 1 µM (LMPTP-B): 99%
LPS-mediated reduction in Rac1 activation [2]: blocked
activity at 1 µM (PTP4A1; 1 µM, in-house assay, N=2, read-out: % Activity (Mean ± SD) PTP4A1): 1%
IC50 (PTP4A1): 0.05 ± 0.014 µM
activity at 1 µM (PTPN7 (HePTP)): 97 ± 3%
inhibition of p38α (p38α): ~50%
activity at 1 µM (DUSP13 (TMDP)): 95 ± 1%
LPS-mediated RhoA activation [3]: blocked
TEER after LPS, pretreatment ([4]; 5 µM, 24 h prior to LPS 0.5 EU/mL): prevented LPS-induced disruption of the endothelial barrier function
TEER after LPS, post-treatment ([4]; treatment 3 h after LPS exposure): no observed mitigation
activity at 1 µM (Lambda PP (Phage)): 72 ± 3%

SMILES: O=c1[nH]c(=O)c2cc(-c3ccccc3)sc2[nH]1 [JMS-038]
IC50 (OvCa cell lines): > 50 µM
IC50 (OvCa cell line spheroids): > 50 µM
IC50 (A2780): > 50 µM
IC50 (SKOV3IP1): > 50 µM
IC50 (SKOV3TRIP2): > 50 µM
IC50 (HEYA8): > 50 µM
IC50 (HEYA8-MDR): > 50 µM
IC50 (OVCAR4): > 50 µM
IC50 (SKOV3): > 50 µM
IC50 (A2780CP20): > 50 µM
IC50 (IMR90 fibroblasts): > 50 µM
IC50 (PTP4A3 protein [5]): > 100 µM
effect on RhoA activation compared to DMSO vehicle control [6]: no significant effect
∆Tm of PTP4A3 (destabilizing thermal shift) (PTP4A3 protein [7]): no significant thermal shift; also recorded: no effect
migration of HeyA8 cells after wounding (HeyA8 cells): but not JMS-038 blocked the migration
IC50 (HeyA8 spheroids; Homo sapiens, HEY A8, 48 h, Mean ± SD, N=3): > 50 µM
HeyA8 cell spheroid growth (images) (HeyA8 spheroids; images 48 h after plating and 24 h after compound addition): but not JMS-038 inhibited HeyA8 cell spheroid growth
IC50 (SKOV3 spheroids): > 50 µM
IC50 (OVCAR4 spheroids): > 50 µM
IC50 (SKOV3TRIP2 spheroids): > 50 µM
IC50 (A2780 spheroids): > 50 µM
IC50 (COV362 spheroids): > 50 µM
IC50 [8]: > 25 µM
IC50 (SKOV3IP1 spheroids): > 50 µM
IC50 (HeyA8-MDR spheroids): > 50 µM
IC50 (A2780CP20 spheroids): > 50 µM
